# Experimental data: patent US20080299590A1, “SHC protein-related methods and compositions” (Roger Williams Hospital, priority 2005, published 2008)
# System: breast cancer patients
# Assay: Shc Test TMA study: protection by adjuvant tamoxifen or chemotherapy by Shc risk group (multivariate survival models)
# Assay type: in vivo, human
# Description: Materials and Methods: Patient samples included primary invasive tumor specimens from 4,326 British Columbian women in Tumor Micro-Array (TMA) format (no adjuvant therapy=1860; tamoxifen=1366; chemotherapy (AC, CMF, FAC, CEF)=744; relapsed=1752; died of disease=1334, average follow-up 13 yrs). Two additional sources were 65 primary tumor specimens from tamoxifen-only-treated patients (10 recurrences, 6.4 yrs average follow-up) from Roger Williams Medical Center (RWMC), and 32 (14 recurrences) from a published study (Massachusetts General Hospital (MGH)) (Ma et al., Cancer Cell, 5:1-10 (2004)). Immunohistochemistry (IHC) staining of the Shc proteins was scored on a continuous 0-5 scale by two pathologists, blinded to patient clinical data.
# Analysis of relapse-free survival (RFS) and disease specific survival (DSS) used multivariate models under assumptions of both log-normality as well as proportionality of hazard rate.
structure (smiles),measurement,setting,value
CC/C(=C(\c1ccccc1)c1ccc(OCCN(C)C)cc1)c1ccccc1 [tamoxifen],hazard ratio (HR) of tamoxifen therapy,"12% of patients classified as high risk by the Shc Test, node positive patients",0.26
same,benefit from tamoxifen,63% patients in the low risk group by the Shc Test,little benefit
